# Where a SMILES comes first, the peptide text is derived from it.
# What was measured:
# [1] = tested on: S. aureus; test: microbe, parasite or virus in culture; type: cell-based, Staphylococcus aureus
# In short: (§1)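 Each strain is brought to 2×10^6 CFU in nutrient-sufficient Mueller-Hinton medium and dispensed into wells. Peptide solutions, stepwise diluted 2:1 in the same medium, are then added. The minimal concentration preventing growth gives the MIC.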
# [2] = tested on: MDREC 1229; test: MIC of antibiotic during combined treatment with antimicrobial peptide; type: cell-based, Escherichia coli
# In short: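 Broth microdilution in MH medium; strains were diluted to 2×10^6 CFU per ml before plating. Peptide was serially diluted stepwise at 2:1 starting from its MIC, and MH-diluted antibiotic was then added to determine MIC. The reversed arrangement was also tested.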
# [3] = tested on: A. baumannii; test: as above; type: cell-based, Acinetobacter baumannii; settings: for Antibiotic MIC, Erythromycin / Antibiotic MIC, Linezolid / Antibiotic MIC, Vancomycin: A. baumannii
# In short: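 First, antibiotic solution is diluted with MH medium; next, the dilution is dispensed into wells containing peptide; finally, the orientation is swapped and MIC of each mixture determined.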
# [4] = tested on: S. typhimurium; test: microbe, parasite or virus in culture; type: cell-based, Salmonella typhimurium
# In short: as §1
# [5] = tested on: MDRAB 12035; test: microbe, parasite or virus in culture; type: cell-based, Acinetobacter baumannii
# In short: as §1
# [6] = tested on: A. baumannii; test: microbe, parasite or virus in culture; type: cell-based, Acinetobacter baumannii
# In short: as §1
# [7] = tested on: gram-negative bacteria; test: MIC, summary statements for gram-negative bacteria; type: cell-based; settings: gram-negative bacteria
# In short: as §1
# [8] = peptide treatment concentration 1 μg/ml
# [9] = peptide treatment concentration 2 μg/ml
# [10] = peptide treatment concentration 4 μg/ml
# [11] = peptide treatment concentration 6 μg/ml
# [12] = peptide treatment concentration 8 μg/ml
# [13] = peptide treatment concentration 16 μg/ml
# [14] = peptide treatment concentration 32 μg/ml
# [15] = peptide treatment concentration 64 μg/ml
# [16] = combined with peptide at 1 μg/ml
# [17] = combined with peptide at 2 μg/ml
# [18] = combined with peptide at 4 μg/ml
# [19] = combined with peptide at 6 μg/ml
# [20] = combined with peptide at 8 μg/ml
# [21] = combined with peptide at 16 μg/ml
# [22] = combined with peptide at 32 μg/ml
# [23] = combined with peptide at 64 μg/ml
structure (smiles),measurement,setting,value
"CC[C@H](C)[C@H](NC(=O)[C@H](CCCCN)NC(=O)[C@H](Cc1c[nH]c2ccccc12)NC(=O)[C@@H](N)CCCNC(=N)N)C(=O)N[C@@H](Cc1ccccc1)C(=O)N[C@@H](CCCCN)C(=O)N[C@@H](CCCCN)C(=O)N[C@H](C(=O)N1CCC[C@H]1C(=O)N[C@@H](CCCCN)C(=O)N[C@@H](Cc1ccccc1)C(=O)N[C@@H](CC(C)C)C(=O)N[C@@H](Cc1c[nH]cn1)C(=O)N[C@@H](CO)C(=O)N[C@@H](Cc1c[nH]c2ccccc12)C(=O)N[C@@H](CCCCN)C(=O)N[C@@H](CCCCN)C(=O)N[C@@H](Cc1ccccc1)C(N)=O)[C@@H](C)CC [PapMA-3, RWK IFK KIP KFL HSW KKF-NH2] (H-RWKIFKKIPKFLHSWKKF-NH2; N-terminus assumed)",Minimal inhibitory concentration MIC,[1],>128 µg/mL
same,"Antibiotic MIC, Erythromycin",[2]; [8],128 µg/mL
same,"Antibiotic MIC, Linezolid",[2]; [8],>128 µg/mL
same,"Antibiotic MIC, Vancomycin",[2]; [8],>128 µg/mL
same,"Antibiotic MIC, Erythromycin",[2]; [9],32 µg/mL
same,"Antibiotic MIC, Linezolid",[2]; [9],64 µg/mL
same,"Antibiotic MIC, Vancomycin",[2]; [9],>128 µg/mL
same,"Antibiotic MIC, Erythromycin",[2]; [10],32 µg/mL
same,"Antibiotic MIC, Linezolid",[2]; [10],64 µg/mL
same,"Antibiotic MIC, Vancomycin",[2]; [10],>128 µg/mL
same,"Antibiotic MIC, Erythromycin",[2]; [11],16 µg/mL
same,"Antibiotic MIC, Linezolid",[2]; [11],32 µg/mL
same,"Antibiotic MIC, Vancomycin",[2]; [11],>128 µg/mL
same,"Antibiotic MIC, Erythromycin",[2]; [12],4 µg/mL
same,"Antibiotic MIC, Linezolid",[2]; [12],16 µg/mL
same,"Antibiotic MIC, Vancomycin",[2]; [12],128 µg/mL
same,"Antibiotic MIC, Erythromycin",[2]; [13],0.25 µg/mL
same,"Antibiotic MIC, Linezolid",[2]; [13],4 µg/mL
same,"Antibiotic MIC, Vancomycin",[2]; [13],16 µg/mL
same,"Antibiotic MIC, Erythromycin",[2]; [14],0 µg/mL
same,"Antibiotic MIC, Linezolid",[2]; [14],0 µg/mL
same,"Antibiotic MIC, Vancomycin",[2]; [14],0 µg/mL
same,"Antibiotic MIC, Erythromycin",[2]; [15],0 µg/mL
same,"Antibiotic MIC, Linezolid",[2]; [15],0 µg/mL
same,"Antibiotic MIC, Vancomycin",[2]; [15],0 µg/mL
same,Synergistic effect of antibacterial activity with existing antibiotics compared with PapMA-1,[3]; A. baumannii and MDRAB 12035,higher level than the PapMA-1 peptide
same,"Antibiotic MIC, Erythromycin",[3]; [16],32 µg/mL
same,"Antibiotic MIC, Linezolid",[3]; [16],>128 µg/mL
same,"Antibiotic MIC, Vancomycin",[3]; [16],>128 µg/mL
same,"Antibiotic MIC, Erythromycin",[3]; [17],16 µg/mL
same,"Antibiotic MIC, Linezolid",[3]; [17],64 µg/mL
same,"Antibiotic MIC, Vancomycin",[3]; [17],128 µg/mL
same,"Antibiotic MIC, Erythromycin",[3]; [18],8 µg/mL
same,"Antibiotic MIC, Linezolid",[3]; [18],32 µg/mL
same,"Antibiotic MIC, Vancomycin",[3]; [18],64 µg/mL
same,"Antibiotic MIC, Erythromycin",[3]; [19],1 µg/mL
same,"Antibiotic MIC, Linezolid",[3]; [19],16 µg/mL
same,"Antibiotic MIC, Vancomycin",[3]; [19],32 µg/mL
same,"Antibiotic MIC, Erythromycin",[3]; [20],0.125 µg/mL
same,"Antibiotic MIC, Linezolid",[3]; [20],8 µg/mL
same,"Antibiotic MIC, Vancomycin",[3]; [20],32 µg/mL
same,"Antibiotic MIC, Erythromycin",[3]; [21],0 µg/mL
same,"Antibiotic MIC, Linezolid",[3]; [21],0 µg/mL
same,"Antibiotic MIC, Vancomycin",[3]; [21],0 µg/mL
same,"Antibiotic MIC, Erythromycin",[3]; [22],0 µg/mL
same,"Antibiotic MIC, Linezolid",[3]; [22],0 µg/mL
same,"Antibiotic MIC, Vancomycin",[3]; [22],0 µg/mL
same,"Antibiotic MIC, Erythromycin",[3]; [23],0 µg/mL
same,"Antibiotic MIC, Linezolid",[3]; [23],0 µg/mL
same,"Antibiotic MIC, Vancomycin",[3]; [23],0 µg/mL
same,Minimal inhibitory concentration MIC,[4],32 µg/mL
same,Minimal inhibitory concentration MIC,[5],16 µg/mL
same,"Peptide MIC, peptide alone",[5],16 µg/mL
same,Minimal inhibitory concentration MIC,[6],16 µg/mL
same,"Peptide MIC, peptide alone",[6],16 µg/mL
same,Antibacterial activity relative to PapMA-1,[6]; A. baumannii and antibiotic-resistant strains thereof,4 times
same,Antibacterial activity (in words),[7],comparable to papiliocin or melittin

# Reference: patent US11214594B2, “Antimicrobial peptide having synergistic antibacterial effect with antibiotics on multidrug resistant bacteria, and use thereof” (priority 2016, dated 2022)
